Results published in ChEMBL document CHEMBL4028802, “DILIrank: the largest reference drug list ranked by the risk for developing drug-induced liver injury in humans” (Drug Discov Today, 2016).

What was measured:
Homo sapiens [1] = species on record: Homo sapiens; assay: Liver toxicity in human assessed as induction of drug-induced liver injury by measuring severity class index
Homo sapiens [2] = species on record: Homo sapiens; assay: Liver toxicity in human assessed as induction of drug-induced liver injury by measuring verified drug-induced liver injury concern status
Wherever DILI severity class is given: key of the grades not given here.

NC(=O)CC[C@@H]1NC(=O)[C@H](Cc2ccccc2)NC(=O)[C@H](Cc2ccc(O)cc2)NC(=O)[C@@H](N)CSSC[C@@H](C(=O)N2CCC[C@H]2C(=O)N[C@@H](CCCN=C(N)N)C(=O)NCC(N)=O)NC(=O)[C@H](CC(N)=O)NC1=O [VASOPRESSIN]
DILI_severity_class (Homo sapiens [1]): 0 | DILI_Concern (Homo sapiens [2]): No-Dili-Concern

CC(=O)O[C@H]1C[C@@H]2CC[C@@H]3[C@H](CC[C@@]4(C)[C@H]3C[C@H]([N+]3(C)CCCCC3)[C@@H]4OC(C)=O)[C@@]2(C)C[C@@H]1N1CCCCC1 [VECURONIUM]
DILI_severity_class (Homo sapiens [1]): 0 | DILI_Concern (Homo sapiens [2]): No-Dili-Concern

COc1ccc(C(CN(C)C)C2(O)CCCCC2)cc1 (stereo unspecified) [VENLAFAXINE]
DILI_severity_class (Homo sapiens [1]): 7 | DILI_Concern (Homo sapiens [2]): Less-Dili-Concern

C=CC(N)CCC(=O)O (stereo unspecified) [VIGABATRIN]
DILI_severity_class (Homo sapiens [1]): 2 | DILI_Concern (Homo sapiens [2]): Ambiguous-Dili-Concern

CC[C@]1(O)C[C@@H]2CN(CCc3c([nH]c4ccccc34)[C@@](C(=O)OC)(c3cc4c(cc3OC)N(C)[C@H]3[C@@](O)(C(=O)OC)[C@H](OC(C)=O)[C@]5(CC)C=CCN6CC[C@]43[C@@H]65)C2)C1 [VINBLASTINE]
DILI_severity_class (Homo sapiens [1]): 0 | DILI_Concern (Homo sapiens [2]): No-Dili-Concern

CC[C@]1(O)C[C@H]2CN(CCc3c([nH]c4ccccc34)[C@@](C(=O)OC)(c3cc4c(cc3OC)N(C=O)[C@H]3[C@@](O)(C(=O)OC)[C@H](OC(C)=O)[C@]5(CC)C=CCN6CC[C@]43[C@@H]65)C2)C1 [VINCRISTINE]
DILI_severity_class (Homo sapiens [1]): 8 | DILI_Concern (Homo sapiens [2]): Less-Dili-Concern

CCC1=C[C@@H]2CN(C1)Cc1c([nH]c3ccccc13)[C@@](C(=O)OC)(c1cc3c(cc1OC)N(C)[C@H]1[C@@](O)(C(=O)OC)[C@H](OC(C)=O)[C@]4(CC)C=CCN5CC[C@]31[C@@H]54)C2 [VINORELBINE]
DILI_severity_class (Homo sapiens [1]): 3 | DILI_Concern (Homo sapiens [2]): Ambiguous-Dili-Concern

C[C@@H](c1ncncc1F)[C@](O)(Cn1cncn1)c1ccc(F)cc1F [VORICONAZOLE]
DILI_severity_class (Homo sapiens [1]): 8 | DILI_Concern (Homo sapiens [2]): Most-Dili-Concern

O=C(CCCCCCC(=O)Nc1ccccc1)NO [VORINOSTAT]
DILI_severity_class (Homo sapiens [1]): 0 | DILI_Concern (Homo sapiens [2]): No-Dili-Concern

CC(=O)CC(c1ccccc1)c1c(O)c2ccccc2oc1=O (stereo unspecified) [WARFARIN]
DILI_severity_class (Homo sapiens [1]): 5 | DILI_Concern (Homo sapiens [2]): Less-Dili-Concern

CCOC(Nc1ccc(C(=O)O)cc1)C(=O)c1ccc(-c2ccccc2)cc1 (stereo unspecified) [XENAZOIC ACID]
DILI_severity_class (Homo sapiens [1]): 8 | DILI_Concern (Homo sapiens [2]): Most-Dili-Concern

CCOC(=O)CN[C@@H](C(=O)N1CC[C@H]1C(=O)NCc1ccc(/C(N)=N\O)cc1)C1CCCCC1 [XIMELAGATRAN]
DILI_severity_class (Homo sapiens [1]): 8 | DILI_Concern (Homo sapiens [2]): Most-Dili-Concern

COc1cc(C(=O)NS(=O)(=O)c2ccccc2C)ccc1Cc1cn(C)c2ccc(NC(=O)OC3CCCC3)cc12 [ZAFIRLUKAST]
DILI_severity_class (Homo sapiens [1]): 8 | DILI_Concern (Homo sapiens [2]): Most-Dili-Concern

CCN(C(C)=O)c1cccc(-c2ccnc3c(C#N)cnn23)c1 [ZALEPLON]
DILI_severity_class (Homo sapiens [1]): 0 | DILI_Concern (Homo sapiens [2]): No-Dili-Concern

Cc1cn([C@H]2C[C@H](N=[N+]=[N-])[C@@H](CO)O2)c(=O)[nH]c1=O [ZIDOVUDINE]
DILI_severity_class (Homo sapiens [1]): 8 | DILI_Concern (Homo sapiens [2]): Most-Dili-Concern

CC(c1cc2ccccc2s1)N(O)C(N)=O (stereo unspecified) [ZILEUTON]
DILI_severity_class (Homo sapiens [1]): 5 | DILI_Concern (Homo sapiens [2]): Most-Dili-Concern

CN(C)C/C=C(/c1ccc(Br)cc1)c1cccnc1 [ZIMELDINE]
DILI_severity_class (Homo sapiens [1]): 8 | DILI_Concern (Homo sapiens [2]): Most-Dili-Concern

O=C1Cc2cc(CCN3CCN(c4nsc5ccccc45)CC3)c(Cl)cc2N1 [ZIPRASIDONE]
DILI_severity_class (Homo sapiens [1]): 3 | DILI_Concern (Homo sapiens [2]): Less-Dili-Concern

O.O=P(O)(O)C(O)(Cn1ccnc1)P(=O)(O)O [ZOLEDRONIC ACID]
DILI_severity_class (Homo sapiens [1]): 0 | DILI_Concern (Homo sapiens [2]): Less-Dili-Concern

CN(C)CCc1c[nH]c2ccc(C[C@H]3COC(=O)N3)cc12 [ZOLMITRIPTAN]
DILI_severity_class (Homo sapiens [1]): 3 | DILI_Concern (Homo sapiens [2]): Ambiguous-Dili-Concern

Cc1ccc(-c2nc3ccc(C)cn3c2CC(=O)N(C)C)cc1 [ZOLPIDEM]
DILI_severity_class (Homo sapiens [1]): 7 | DILI_Concern (Homo sapiens [2]): Ambiguous-Dili-Concern

NS(=O)(=O)Cc1noc2ccccc12 [ZONISAMIDE]
DILI_severity_class (Homo sapiens [1]): 2 | DILI_Concern (Homo sapiens [2]): Less-Dili-Concern

BIVALIRUDIN
DILI_severity_class (Homo sapiens [1]): 0 | DILI_Concern (Homo sapiens [2]): No-Dili-Concern

BLEOMYCIN
DILI_severity_class (Homo sapiens [1]): 3 | DILI_Concern (Homo sapiens [2]): Ambiguous-Dili-Concern

CUPRIC CHLORIDE
DILI_severity_class (Homo sapiens [1]): 0 | DILI_Concern (Homo sapiens [2]): No-Dili-Concern

DALTEPARIN SODIUM
DILI_severity_class (Homo sapiens [1]): 3 | DILI_Concern (Homo sapiens [2]): Less-Dili-Concern

GALLIUM NITRATE
DILI_severity_class (Homo sapiens [1]): 3 | DILI_Concern (Homo sapiens [2]): Ambiguous-Dili-Concern

H-SEEPPISLDLTFHLLREVLEMARAEQLAQQAHSNRKMLEII-OH
DILI_severity_class (Homo sapiens [1]): 0 | DILI_Concern (Homo sapiens [2]): No-Dili-Concern

IVERMECTIN
DILI_severity_class (Homo sapiens [1]): 3 | DILI_Concern (Homo sapiens [2]): Less-Dili-Concern

LANTHANUM CARBONATE
DILI_severity_class (Homo sapiens [1]): 0 | DILI_Concern (Homo sapiens [2]): No-Dili-Concern

NYSTATIN
DILI_severity_class (Homo sapiens [1]): 0 | DILI_Concern (Homo sapiens [2]): No-Dili-Concern

POLYMYXIN B SULFATE
DILI_severity_class (Homo sapiens [1]): 0 | DILI_Concern (Homo sapiens [2]): No-Dili-Concern

SECRETIN
DILI_severity_class (Homo sapiens [1]): 0 | DILI_Concern (Homo sapiens [2]): No-Dili-Concern

SEVELAMER
DILI_severity_class (Homo sapiens [1]): 0 | DILI_Concern (Homo sapiens [2]): No-Dili-Concern

SIMETHICONE
DILI_severity_class (Homo sapiens [1]): 0 | DILI_Concern (Homo sapiens [2]): No-Dili-Concern

VERTEPORFIN
DILI_severity_class (Homo sapiens [1]): 3 | DILI_Concern (Homo sapiens [2]): Ambiguous-Dili-Concern

VITAMIN E
DILI_severity_class (Homo sapiens [1]): 0 | DILI_Concern (Homo sapiens [2]): No-Dili-Concern

enfuvirtide
DILI_severity_class (Homo sapiens [1]): 3 | DILI_Concern (Homo sapiens [2]): Ambiguous-Dili-Concern
